# Test results as given in the SangsterLogP compilation.
# Assay: method code SF-HPLC, from DOI: 10.1080/10826079808000494
# Details: pH 6.9
row,Compound,logD
1,CCOC(=O)C1=C(C)NC(C)=C(C(=O)OC)C1c1ccccc1OCOC (stereo not given),3.38
2,CCOC(=O)C1=C(C)NC(C)=C(C(=O)OCC)C1c1cccc2c1OCO2,3.92
3,CCOC(=O)C1=C(C)NC(C)=C(C(=O)OC(C)C)C1c1cccc2c1OCO2 (stereo not given),4.31
4,COC(=O)C1=C(C)NC(C)=C(C(=O)OCc2cccnc2)C1c1cccc2c1OCO2 (stereo not given),3.21
5,COC(=O)C1=C(C)NC(C)=C(C(=O)OC(C)C)C1c1cccc2c1OCO2 (stereo not given),3.75
6,CCOC(=O)C1=C(C)NC(C)=C(C(=O)OC)C1c1cccc(OC)c1OC (stereo not given),3.18
7,COC(=O)C1=C(C)NC(C)=C(C(=O)OC)C1c1cccc2c1OCO2,3.06
8,CCOC(=O)C1=C(C)NC(C)=C(C(=O)OC)C1c1cc(OC)c(O)c(OC)c1 (stereo not given),2.43
9,CCOC(=O)C1=C(C)NC(C)=C(C(=O)OC)C1c1cc(OC)c(OC)c(OC)c1 (stereo not given),2.99
10,COCCOC(=O)C1=C(C)NC(C)=C(C(=O)OC(C)C)C1c1cccc2c1OCO2 (stereo not given),3.54
11,CCOC(=O)C1=C(C)NC(C)=C(C(=O)OC)C1c1ccccc1 (stereo not given),3.74
12,CCOC(=O)C1=C(C)NC(C)=C(C(=O)OC)C1c1cccc2c1OCCO2 (stereo not given),3.17
13,CCOC(=O)C1=C(C)NC(C)=C(C(=O)OC)C1c1ccc(OC)c(OC)c1 (stereo not given),3.2
14,CC1=C(C#N)C(C)(C)C(C#N)=C(C)N1,2.47
15,CCOC(=O)C1=C(C)NC(C)=C(C(=O)OC)C1c1cc(OC)cc(OC)c1 (stereo not given),3.68
